In the supplement of paper PMC8671470:
± gives the standard deviation of the averaged measurements.

Tested on: HL-60
Assay: cell viability (% survival relative to DMSO control); higher = less cytotoxic
Conditions: 72 h
In short: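 HL-60 cells grown in RPMI 1640 with 10% FBS were rescreened against the full library in 384-well plates, in duplicate, at five tenfold concentrations from 1 to 10,000 nM, alongside DMSO or 100 nM of one of three metabolic inhibitors for 72 h at 37 °C, 5% CO2. Reference wells contained DMSO or 10 μM proteasome inhibitor. Viability was read with CellTiter-Glo and normalised to these reference wells, and where reported, area under the curve was taken from four-parameter log-logistic fits in drc and PharmacoGx.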

[1] = 0.001 µM, co-treatment: AZD3965 100 nM
[2] = 0.001 µM, co-treatment: DMSO vehicle
[3] = 0.001 µM, co-treatment: GSK2194069 100 nM
[4] = 0.001 µM, co-treatment: pictilisib 100 nM
[5] = 0.01 µM, co-treatment: AZD3965 100 nM
[6] = 0.01 µM, co-treatment: DMSO vehicle
[7] = 0.01 µM, co-treatment: GSK2194069 100 nM
[8] = 0.01 µM, co-treatment: pictilisib 100 nM
[9] = 0.1 µM, co-treatment: AZD3965 100 nM
[10] = 0.1 µM, co-treatment: DMSO vehicle
[11] = 0.1 µM, co-treatment: GSK2194069 100 nM
[12] = 0.1 µM, co-treatment: pictilisib 100 nM
[13] = 1 µM, co-treatment: AZD3965 100 nM
[14] = 1 µM, co-treatment: DMSO vehicle
[15] = 1 µM, co-treatment: GSK2194069 100 nM
[16] = 1 µM, co-treatment: pictilisib 100 nM
[17] = 10 µM, co-treatment: AZD3965 100 nM
[18] = 10 µM, co-treatment: DMSO vehicle
[19] = 10 µM, co-treatment: GSK2194069 100 nM
[20] = 10 µM, co-treatment: pictilisib 100 nM

Structure (SMILES)	cell viability [1] [%]	cell viability [2] [%]	cell viability [3] [%]	cell viability [4] [%]	cell viability [5] [%]	cell viability [6] [%]	cell viability [7] [%]	cell viability [8] [%]	cell viability [9] [%]	cell viability [10] [%]	cell viability [11] [%]	cell viability [12] [%]	cell viability [13] [%]	cell viability [14] [%]	cell viability [15] [%]	cell viability [16] [%]	cell viability [17] [%]	cell viability [18] [%]	cell viability [19] [%]	cell viability [20] [%]
CC(Cc1ccc(O)c(O)c1)C(C)Cc1ccc(O)c(O)c1 (stereo not given) [Masoprocol]	103 ± 4.1	101.9 ± 0.67	102 ± 9.7	102 ± 5.4	100 ± 7.9	98.1 ± 2.7	100.9 ± 0.44	89.6 ± 7.2	98.5 ± 1.4	96.29 ± 0.34	98.6 ± 2.7	94 ± 5.3	92.8 ± 4.1	99.3 ± 1.9	96.6 ± 4.1	86.4 ± 1.2	10.8 ± 0.34	12.9 ± 3.7	21.8 ± 0.43	4.58 ± 1
COc1c(C)c2c(c(O)c1C/C=C(\C)CCC(=O)O)C(=O)OC2 [Mycophenolic acid]	96.8 ± 3.9	72.1 ± 34	85.6 ± 16	91.1 ± 12	89.8 ± 13	96.4 ± 5.6	86.3 ± 18	92.87 ± 0.34	99 ± 6.1	95.9 ± 2.7	94.33 ± 0.34	99.1 ± 7.1	113.3 ± 0.98	106.1 ± 0.96	103 ± 7.8	98.72 ± 0.17	31.9 ± 4.8	56.2 ± 3.4	55.8 ± 1.6	55.7 ± 1.7
C1CCC(C(CC2CCCCN2)C2CCCCC2)CC1.O=C(O)/C=C\C(=O)O (stereo not given) [Perhexiline]	101 ± 3.6	108 ± 3.6	104.6 ± 0.56	90.6 ± 16	95.4 ± 6.8	102 ± 4.9	91.3 ± 14	98.9 ± 25	108 ± 5.2	103 ± 3.9	99 ± 9.2	112.1 ± 0.54	99.1 ± 2.5	105 ± 2.4	86.4 ± 9.4	73.2 ± 25	-0.971 ± 0.58	-1.01 ± 1.6	-1.86 ± 0.47	-1.67 ± 0.61
OCCN1CCN(CCCN2c3ccccc3Sc3ccc(Cl)cc32)CC1 [Perphenazine]	101 ± 1.7	105 ± 2.5	98.1 ± 2.6	99.74 ± 0.41	99.4 ± 5.2	102 ± 1.6	101 ± 11	105 ± 2	107 ± 5.8	105 ± 4.4	95.1 ± 16	107 ± 8.5	98.6 ± 1.1	103.72 ± 0.059	97.5 ± 15	109 ± 5.6	86.3 ± 7	91.3 ± 5.4	55.4 ± 12	61.7 ± 8
C=CCc1ccc2c(c1O)C(=O)c1ccccc1C2=O [R162]	106 ± 5.3	103 ± 1.6	102 ± 2.1	102 ± 18	99.12 ± 0.61	103 ± 3.5	103 ± 8.4	101 ± 10	104 ± 4.1	98.1 ± 2.4	98.5 ± 4.3	101 ± 7.5	102 ± 1.3	100.6 ± 0.84	100 ± 2.6	104 ± 2.5	106 ± 4.2	97.8 ± 2.4	97.07 ± 0.71	90.6 ± 9.3
O=C(c1ccc(OCCN2CCCCC2)cc1)c1c(-c2ccc(O)cc2)sc2cc(O)ccc12 [Raloxifene]	93 ± 9.2	85.9 ± 11	79.1 ± 13	104.6 ± 0.91	91.9 ± 19	80.4 ± 24	80.5 ± 22	94.1 ± 9	98 ± 1.4	101 ± 2.3	93.3 ± 1.2	99.7 ± 8.1	101 ± 8.2	97.14 ± 0.84	87.1 ± 23	105 ± 2.5	100.7 ± 0.99	101 ± 1.9	70.9 ± 18	113 ± 9.9
NC(=O)c1ncn([C@@H]2O[C@H](CO)[C@@H](O)[C@H]2O)n1 [Ribavirin]	100 ± 3.5	100.3 ± 0.67	92.1 ± 6.2	105 ± 7.1	100 ± 4.4	102 ± 1.6	76.6 ± 27	106 ± 5	99.2 ± 3.9	102 ± 3	94.1 ± 5.5	101 ± 3	99.8 ± 4.1	97.1 ± 3.6	90.1 ± 14	107 ± 3.6	106 ± 2.2	104 ± 4.4	90.4 ± 12	104 ± 3.7
Nc1ncnc2c1ncn2[C@@H]1O[C@H](CSCC[C@H](N)C(=O)O)[C@@H](O)[C@H]1O [S-Adenosyl Homocysteine]	103 ± 18	97.1 ± 11	91.8 ± 36	108 ± 33	85.2 ± 20	93.3 ± 4.4	86.7 ± 12	78.6 ± 4.6	101 ± 3.4	98.6 ± 3.3	103 ± 8.4	102 ± 5.2	97.2 ± 3.1	98.5 ± 2.5	99.08 ± 0.63	97.8 ± 7	101.99 ± 0.033	99.4 ± 3.9	94.5 ± 13	98 ± 4.3
CCCc1nn(C)c2c(O)nc(-c3cc(S(=O)(=O)N4CCN(C)CC4)ccc3OCC)nc12 [Sildenafil]	104 ± 6.6	88.1 ± 13	91.3 ± 6.8	79.6 ± 40	99.2 ± 1.4	98.4 ± 4.1	96.77 ± 0.75	102 ± 7.1	104.5 ± 0.69	106 ± 5.1	123 ± 12	117 ± 10	99.4 ± 4.6	103 ± 2.1	97.06 ± 0.92	93.6 ± 18	99.89 ± 0.83	102 ± 2.9	93 ± 1.7	94.7 ± 7.5
Cc1coc2c1C(=O)C(=O)c1c-2ccc2c(C)cccc12 [Tanshinone I]	100.1 ± 0.2	97.288 ± 0.063	94.6 ± 6.6	97.1 ± 5.6	101 ± 1.8	103 ± 6.3	103.8 ± 0.31	104 ± 3.1	104 ± 9.7	101.8 ± 0.9	108 ± 12	101 ± 0.32	104 ± 1.6	103.5 ± 0.31	102 ± 4.4	103.6 ± 0.57	100.3 ± 0.27	97.2 ± 5.3	101 ± 1.4	106 ± 9.7
CCOC(=O)N1c2ccc(C(F)(F)F)cc2[C@@H](N(Cc2cc(C(F)(F)F)cc(C(F)(F)F)c2)C(=O)OC)C[C@H]1CC [Torcetrapib]	101 ± 1.8	104.8 ± 1	101 ± 10	113 ± 16	98.6 ± 2.3	99.13 ± 0.66	104 ± 15	105 ± 22	97.5 ± 4	98.7 ± 8.2	88 ± 9.7	83.6 ± 18	97.7 ± 6.2	103 ± 6.9	94.9 ± 7.2	100 ± 4.2	98.8 ± 5.5	100 ± 1.6	95.4 ± 16	117 ± 21
Oc1cc(Cl)ccc1Oc1ccc(Cl)cc1Cl [Triclosan]	100 ± 3.6	101 ± 2.6	102 ± 4.7	93.3 ± 13	104 ± 5.1	98.7 ± 7.6	107 ± 9.5	120 ± 9.4	96.5 ± 1.2	99.7 ± 1.2	95.3 ± 5.2	95.7 ± 12	94.9 ± 7.2	99.6 ± 1.5	105 ± 4.4	111 ± 3.4	103 ± 3.2	111 ± 4	99.7 ± 2.5	107.6 ± 0.22
